Source: patent US9642922B2, “Caspase-triggered nano-aggregation probes and methods of use” (The Board of Trustees of the Leland Stanford Junior …, priority 2013, dated 2017)
Numbered stars: 1 amine (or outer) side, 2 acyl side, 3 side chain; on linkers, the order of the positions; unused ones are H or OH. Square brackets hold non-standard residues; d marks the D form. Peptide text beside a SMILES is read from it. * marks the point of attachment. DOTA = O=C(O)CN1CCN(CC(=O)O)CCN(CC(=O)*)CCN(CC(=O)O)CC1; X1 = O=C(C1CSC(c2nc3ccc(N[*:1])cc3s2)=N1)[*:2]; X2 = N#Cc1ccc2cc(OCCCN*)ccc2n1; SEt = CCS*

Tests used:
caspase-9 [1] = molecular target: T1, caspase-9 (Homo sapiens, UniProt P55211); experiment: HPLC enzyme specificity assay of C-SNAF, caspase-9; format: biochemical; settings: 25 μM probe, 0.735 μg/ml enzyme
T1 construct: purchased Calbiochem; host or cells: E. coli
Experimental: (§1) The specificity of C-SNAF towards other representative cysteine proteases such as caspase-7, caspase-9, cathepsin B, and legumain was examined.
(§2) Caspase (human, recombinant from E. coli) assays were performed for caspase-3 (4.9×10^−3 U; 7.35×10^−4 mg, Sigma), −7 (18.3 U; 7.35×10^−4 mg, Calbiochem), and −9 (0.3 U; 7.35×10^−4 mg, Calbiochem). All caspase assays were conducted in caspase buffer with 50 mM HEPES, 100 mM NaCl, 1 mM EDTA, 10 mM TCEP, 10% glycerol, and 0.1% CHAPS at pH 7.4. Cathepsin B (human liver; 0.27 U; 7.35×10^−4 mg, Calbiochem) and Legumain (human, recombinant from mouse myeloma cell line; >250 pmol/min/μg; 7.35×10^−4 mg, R&D Systems) were conducted in reaction buffer with 50 mM sodium acetate, 50 mM NaCl, 0.5 mM EDTA and 10 mM TCEP at pH 5.5. C-SNAF was diluted in the respective enzyme reaction buffer (25 μM, 1 mL) and remained at room temperature for 10 min, to which was then added the respective enzymes. Reactions were performed at 37° C., and monitored by HPLC hourly. The percentage conversion of the reaction was calculated based on the percentage of peak area of C-SNAF-cycl in the HPLC trace at 675 nm UV detection, which indicated the efficacy of enzyme cleavage of C-SNAF.

cathepsin B [2] = molecular target: T2, cathepsin B (Homo sapiens, UniProt P07858); experiment: HPLC enzyme specificity assay of C-SNAF, cathepsin B; format: biochemical; settings: 25 μM probe, 0.735 μg/ml enzyme, pH 5.5
T2 construct: Cathepsin B (human liver; 0.27 U; 7.35×10^−4 mg, Calbiochem); purchased Calbiochem; host or cells: human liver (tissue-derived)
Experimental: as §1, §2

[3] = tested on: STS-induced apoptotic HeLa cells; experiment: Flow cytometry of STS-induced apoptotic HeLa cells labeled with probes; format: cell-based, human
Experimental: Approximately 10^5 HeLa cells in 1 mL DMEM medium were seeded onto 12-well plates. […] For the inhibitor blocking experiment, the STS-treated cells were first incubated with the caspase inhibitor Z-VAD-fmk (50 μM, R&D Systems) for 30 min, and then 2 μM C-SNAF was added. All cells incubations were 24 h, followed by staining with FLICA (FAM) after trypsinization. After washing with PBS (1×) three times, the cell pellets were resuspended in 300 μL PBS and applied for flow cytometry analysis using the FITC and Cy5.5 channels. The cell number for each flow cytometry analysis was approximately 5000 to 10000, and the data was processed using FlowJo software.

caspase-9 [4] = molecular target: T1, caspase-9; experiment: T1 measurement of probe 15 with caspase-9; format: biochemical; settings: probe 208 μM, protease 50 nM, 1 T
Experimental: (§3) The enzyme specificity of probe 15 was studied by measuring the T1 value resulting from probe incubation (208 μM) with any of five relevant subcellular proteases (caspase-3, -7, -9, cathepsin B and legumain) in enzyme buffer. […] The reduced T1 value in solution was inhibited by the caspase inhibitor Z-VAD-fmk (50 μM).
Caspase (human, recombinant from E. coli) assays were performed for caspase-3 (4.9×10^−3 U; 7.35×10^−4 mg, Sigma), −7 (18.3 U; 7.35×10^−4 mg, Calbiochem), and −9 (0.3 U; 7.35×10^−4 mg, Calbiochem). All caspase assays were conducted in caspase buffer with 50 mM HEPES, 100 mM NaCl, 1 mM EDTA, 10 mM TCEP, 10% glycerol, and 0.1% CHAPS at pH 7.4.

cathepsin B [5] = molecular target: T2, cathepsin B; experiment: T1 measurement of probe 15 with cathepsin B; format: biochemical; settings: probe 208 μM, protease 50 nM, 1 T
Experimental: as §3
Cathepsin B (human liver; 0.27 U; 7.35×10^−4 mg, Calbiochem) and Legumain (human, recombinant from mouse myeloma cell line; >250 pmol/min/μg; 7.35×10^−4 mg, R&D Systems) were conducted in reaction buffer with 50 mM sodium acetate, 50 mM NaCl, 0.5 mM EDTA and 10 mM TCEP at pH 5.5. The C-SNAF was diluted in the respective enzyme reaction buffer (25 μM, 1 mL) and remained at room temperature for 10 min, to which was added respective enzymes.

HeLa cell pellets = experiment: MRI T1 of HeLa cell pellets at 1 T; format: cell-based, human; settings: 250 μM, 24 h
Source text: Thus, higher caspase-3 activity in apoptotic cells can trap probe 15 inside cells, resulting in higher MRI contrast for cell apoptosis imaging.

T1 sequence (P55211 1-315 limits assumed): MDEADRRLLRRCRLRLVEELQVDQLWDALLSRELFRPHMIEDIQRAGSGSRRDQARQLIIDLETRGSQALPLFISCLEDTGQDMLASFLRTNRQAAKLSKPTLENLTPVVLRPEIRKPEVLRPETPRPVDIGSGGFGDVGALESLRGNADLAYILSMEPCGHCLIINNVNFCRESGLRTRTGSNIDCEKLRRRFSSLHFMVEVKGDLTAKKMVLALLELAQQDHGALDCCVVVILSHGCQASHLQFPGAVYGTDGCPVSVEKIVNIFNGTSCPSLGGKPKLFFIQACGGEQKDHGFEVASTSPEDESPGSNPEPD

T1 value after incubation with caspase-9 (caspase-9 [4]) | T1 value after incubation with cathepsin B (cathepsin B [5]) | Compound | activity of caspase-9 towards probe (caspase-9 [1]) | activation by cathepsin B (cathepsin B [2]) | labeling of FLICA-positive apoptotic cells ([3]; 2 μM probe, STS-induced apoptotic HeLa) | increase in Cy5.5 fluorescence of apoptotic relative to viable cells ([3]; 2 μM probe, STS-treated HeLa, flow cytometry) | effect of caspase inhibitor Z-VAD-fmk on the increased fluorescence ([3]; Z-VAD-fmk 50 μM) | reduction of T1 value in STS-treated versus non-treated cell pellets (HeLa cell pellets)
 |  | CCSSC[C@@H](NC(=O)[C@H](CC(=O)O)NC(=O)[C@@H](NC(=O)[C@H](CCC(=O)O)NC(=O)[C@H](CC(=O)O)NC(C)=O)C(C)C)C(=O)N[C@@H](CCCCNC(=O)CCCCCN1C(=CC=CC=CC2=[N+](CC)c3ccc4c(S(=O)(=O)[O-])cc(S(=O)(=O)O)cc4c3C2(C)C)C(C)(C)c2c1ccc1c(S(=O)(=O)O)cc(S(=O)(=O)O)cc21)C(=O)Nc1ccc2nc(C3=N[C@@H](C(=O)NCCCOc4ccc5nc(C#N)ccc5c4)CS3)sc2c1 [C-SNAF] | essentially no activity | neither lysosomal cysteine proteases cathepsin B nor legumain could significantly activate | efficiently labeled | ~13 fold | inhibited by Z-VAD-fmk | 
No reduced T1 value | No reduced T1 value | CCSSCC(NC(=O)C(CC(=O)O)NC(=O)C(NC(=O)C(CCC(=O)O)NC(=O)C(CC(=O)O)NC(C)=O)C(C)C)C(=O)NC(CCCCNC(=O)CN1CCN(CC(=O)[O-])CCN(CC(=O)[O-])CCN(CC(=O)[O-])CC1)C(=O)Nc1ccc2nc(C3=NC(C(=O)NCCCOc4ccc5nc(C#N)ccc5c4)CS3)sc2c1.[Gd+3] (centres unmarked) [probe 15] (Ac-DEVDC(SEt)K(DOTA)[X1]-X2; configuration not given here) |  |  |  |  |  | about 3 fold
